Assay [1] deals with MCD diet-induced MASH. Put plainly: MCD diet-induced MASH mice, long-term model. Format: in vivo, mouse. The conditions noted are these: oral, 4 weeks, DC646 10 mg/kg, GUDCA 50 mg/kg. As to the method: For the long-term MASH model, 8- to 10-week-old male C57BL/6 J mice were fed with an MCS diet or MCD diet for 2 weeks, before the MCD models were administered with vehicle or GUDCA (50 mg/kg), OCA (30 mg/kg), and DC646 (10 mg/kg) for 4 weeks. The serum, liver, and intestine were collected 2 h after the final dosing. Male Fxr^△IE mice (8–10 weeks old) were fed with a GAN diet for 20 weeks and administered with vehicle or DC646 (10 mg/kg) from the 12th week for 8 weeks. The serum, liver, and intestine were collected 2 h after the final dosing.
The intestine and liver were frozen in liquid nitrogen and stored at −80°C. RNA was extracted, and complementary DNA was synthesized from 1 μg total RNA. RT-qPCR was performed on a Bio-Rad CFX384 Touch detection system (Bio-Rad). The primer sequences for RT-qPCR are shown in Supplementary Table S5. RNA levels were analyzed by 2-^ΔΔCt, normalized to 18S ribosomal RNA and expressed as fold change relative to the control group.
Hepatic TG and TC, and plasma ALT and AST levels were measured using commercial kits from Nanjing Jiancheng Bioengineering Institute according to the manufacturer’s instructions. To measure hepatic TG contents, liver tissues (~10 mg) were homogenized in 100 μL 1% TritonX-100 and centrifuged at 3000 rpm for 10 min. Supernatants were collected, and 2 μL samples were incubated with 200 μL reaction buffer at 37°C for 10 min. Hepatic TG or TC levels were read at 510 or 500 nm using a microplate reader (Versamax, Molecular Devices) and normalized using the protein concentration. To measure plasma ALT and AST levels, reaction buffer 1 and reaction buffer 2 were mixed at a ratio of 1:1, before adding 2 μL plasma sample and 200 μL mixed reaction buffer in a 96-well plate. The data were acquired using the kinetic mode with an interval of 30 s and 31 total reads at 340 nm using a microplate reader (Versamax, Molecular Devices).
Tissue specimens were fixed in 10% formalin for 12–24 h before being dehydrated and paraffin-embedded. The sections were stained with H&E. The NAS was calculated as a summary score including individual components of steatosis (0–3), lobular inflammation (0–3), and hepatocyte ballooning (0–2) for each liver section by a blinded liver pathologist, and the results were reviewed by a blinded hepatologist according to a previous protocol. To visualize liver fibrosis, paraffin-embedded tissue samples were stained with Sirius Red to characterize the collagen deposition. To visualize lipid accumulation and inflammation in the liver, frozen liver sections were stained with Oil Red O and F4/80, and images were acquired using a Leica DM6B laser microdissection system. At least three discontinuous liver sections were evaluated for each mouse.

Assay [2] deals with T1, human FXR alpha (hFXRα)-LBD / NcoR2 peptide (Homo sapiens, UniProt Q96RI1).
T1 construct: 100 nmol/L 6*His-hFXRα-LBD and 100 nmol/L biotinylated co-factor peptide
T1 sequence (Q96RI1 262-486 limits assumed): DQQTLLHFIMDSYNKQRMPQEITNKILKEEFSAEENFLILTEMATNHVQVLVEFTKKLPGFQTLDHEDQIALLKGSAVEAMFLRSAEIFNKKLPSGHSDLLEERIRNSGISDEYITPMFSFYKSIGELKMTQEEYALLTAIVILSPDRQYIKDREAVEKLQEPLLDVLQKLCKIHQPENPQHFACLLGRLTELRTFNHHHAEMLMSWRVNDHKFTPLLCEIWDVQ
The experiment in a line: AlphaScreen assay, recruitment of corepressor peptide NcoR2 to His-hFXRα-LBD. The conditions noted are these: compound alone incubated with His-hFXRα-LBD; read-out: EC50 in recruiting the NcoR2 peptide. The class given is biochemical. As to the method:
(§1) An AlphaScreen technology-based assay was performed according to the manufacturer’s instructions with a minor revision. Briefly, the experiment was conducted with compounds at the indicated concentrations, 100 nmol/L 6*His-hFXRα-LBD and 100 nmol/L biotinylated co-factor peptide in the buffer containing 50 mmol/L MOPS, 50 μmol/L CHAPS, 50 mmol/L NaF, and 0.1 mg/mL BSA, pH 7.4. The mixture was incubated with 50 μg/mL nickel acceptor beads and 50 μg/mL streptavidin donor beads in a 384-well plate under green light in the dark at room temperature, before conducting fluorescence measurement with excitation at 680 nm and emission at 550 nm on an Envision microplate analyzer (PE 2102-8340, PerkinElmer Life Sciences).

The target in assay [3] is T2, human FXR alpha (hFXRα)-LBD / SRC2-3 peptide (Homo sapiens, UniProt Q96RI1).
T2 construct: 100 nmol/L 6*His-hFXRα-LBD and 100 nmol/L biotinylated co-factor peptide
T2 sequence (Q96RI1 262-486 limits assumed): T1 sequence (Q96RI1 262-486 limits assumed)
Put plainly: AlphaScreen assay, recruitment of coactivator peptide SRC2-3 to His-hFXRα-LBD. The class given is biochemical. How it is done:
as §1
(Alpha assays give light when donor and acceptor beads are brought close together.)

For the compound `C[C@H](CCC(=O)NCC(=O)O)[C@H]1CC[C@H]2[C@@H]3[C@@H](O)C[C@@H]4C[C@H](O)CC[C@]4(C)[C@H]3CC[C@]12C` [GUDCA, glycoursodeoxycholic acid, reference compound], the “Hepatic mRNA levels of inflammation-related genes” value in assay [1] is on record as “significantly decreased”. The “Hepatic mRNA levels of lipid metabolism-related genes / hepatic lipid accumulation” value in assay [1] (OCA 30 mg/kg) was “only had minor effect”.

With `CC[C@H]1[C@@H](O)[C@@H]2[C@H](CC[C@]3(C)[C@@H]([C@H](C)CCC(=O)O)CC[C@@H]23)[C@@]2(C)CC[C@@H](O)C[C@@H]12` [OCA, reference compound], in assay [1] (OCA 30 mg/kg), the “Hepatic mRNA levels of lipid metabolism-related genes / hepatic lipid accumulation” value was “markedly downregulated” and the “Serum alanine aminotransferase (ALT) level” value was “cannot improve”. One may read the EC50 as the concentration needed to bring the measured effect to its halfway point. For the compound Ivermectin [reference compound], the EC50 was found to be 2190 nM in assay [2] and 960 nM in assay [3] (compound alone incubated with His-hFXRα-LBD, read-out: EC50 in recruiting the SRC2-3 peptide). Take “N,N'-((1^2S,1^4R,14^2S,14^4R,4S,17S)-5,13,18,26-tetraoxo-2^1,15^1-bis(triisopropylsilyl)-2^1H,15^1H-6,19-dioxa-12,25-diaza-1(4,2),14(2,4)-dimorpholina-2,15(4,3)-diindolacyclohexacosaphane-4,17-diyl)bis(1,1,1-trifluoromethanesulfonamide) [DC644]”: in assay [3] (DC644 at 10 μmol/L compared with GUDCA and GlyMCA at 50 μmol/L), the “Inhibition of SRC2-3 recruitment in the presence of CDCA (library screen)” value is recorded as “more potent”.
